# Test results from US8192962B2, “Processes for detecting toxic substances” (Daikin Industries, Ltd., priority 2001, dated 2012).
# Test system: Genes belonging to other category
# Test: DNA chip mRNA expression in yeast, genes belonging to other category (Table 9)
# Assay type: cell-based, Saccharomyces cerevisiae S288C
# How it was run: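 Expression change after 2 h toxicant exposure (growth-inhibiting, sub-lethal) of log-phase S. cerevisiae S288C at 25° C. Oligo-dT-purified mRNA was labeled with Cy3-dUTP or Cy5-dUTP and hybridized >12 h at 65° C. to a genome-wide chip; ratio of scanned fluorescence to control.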
structure (smiles),measurement,setting,value
"N#Cc1c(Cl)c(Cl)c(Cl)c(C#N)c1Cl [(9), 2,4,5,6-tetrachloro-1,3-benzenedicarbonitrile]",The level of expressed mRNA in the presence of chemical substance/The level of expressed mRNA in the absence of chemical substance,yeast gene YMR297W,1.9
same,The level of expressed mRNA in the presence of chemical substance/The level of expressed mRNA in the absence of chemical substance,yeast gene YMR314W,5.9
same,The level of expressed mRNA in the presence of chemical substance/The level of expressed mRNA in the absence of chemical substance,yeast gene YNL006W,4.0
same,The level of expressed mRNA in the presence of chemical substance/The level of expressed mRNA in the absence of chemical substance,yeast gene YNL007C,3.0
same,The level of expressed mRNA in the presence of chemical substance/The level of expressed mRNA in the absence of chemical substance,yeast gene YNL036W,6.6
same,The level of expressed mRNA in the presence of chemical substance/The level of expressed mRNA in the absence of chemical substance,yeast gene YNL039W,2.1
same,The level of expressed mRNA in the presence of chemical substance/The level of expressed mRNA in the absence of chemical substance,yeast gene YNL093W,1.7
same,The level of expressed mRNA in the presence of chemical substance/The level of expressed mRNA in the absence of chemical substance,yeast gene YNL147W,2.1
same,The level of expressed mRNA in the presence of chemical substance/The level of expressed mRNA in the absence of chemical substance,yeast gene YNL214W,1.5
same,The level of expressed mRNA in the presence of chemical substance/The level of expressed mRNA in the absence of chemical substance,yeast gene YNL333W,2.3
same,The level of expressed mRNA in the presence of chemical substance/The level of expressed mRNA in the absence of chemical substance,yeast gene YNR010W,1.7
same,The level of expressed mRNA in the presence of chemical substance/The level of expressed mRNA in the absence of chemical substance,yeast gene YNR037C,1.3
same,The level of expressed mRNA in the presence of chemical substance/The level of expressed mRNA in the absence of chemical substance,yeast gene YNR069C,5.5
same,The level of expressed mRNA in the presence of chemical substance/The level of expressed mRNA in the absence of chemical substance,yeast gene YOL013C,0.8
same,The level of expressed mRNA in the presence of chemical substance/The level of expressed mRNA in the absence of chemical substance,yeast gene YOL164W,4.9
same,The level of expressed mRNA in the presence of chemical substance/The level of expressed mRNA in the absence of chemical substance,yeast gene YOR036W,1.2
same,The level of expressed mRNA in the presence of chemical substance/The level of expressed mRNA in the absence of chemical substance,yeast gene YOR058C,6.4
same,The level of expressed mRNA in the presence of chemical substance/The level of expressed mRNA in the absence of chemical substance,yeast gene YOR069W,1.9
same,The level of expressed mRNA in the presence of chemical substance/The level of expressed mRNA in the absence of chemical substance,yeast gene YOR117W,3.5
same,The level of expressed mRNA in the presence of chemical substance/The level of expressed mRNA in the absence of chemical substance,yeast gene YOR124C,2.0
same,The level of expressed mRNA in the presence of chemical substance/The level of expressed mRNA in the absence of chemical substance,yeast gene YOR132W,2.8
same,The level of expressed mRNA in the presence of chemical substance/The level of expressed mRNA in the absence of chemical substance,yeast gene YOR134W,1.5
same,The level of expressed mRNA in the presence of chemical substance/The level of expressed mRNA in the absence of chemical substance,yeast gene YOR149C,0.4
same,The level of expressed mRNA in the presence of chemical substance/The level of expressed mRNA in the absence of chemical substance,yeast gene YOR157C,5.7
same,The level of expressed mRNA in the presence of chemical substance/The level of expressed mRNA in the absence of chemical substance,yeast gene YOR165W,0.8
same,The level of expressed mRNA in the presence of chemical substance/The level of expressed mRNA in the absence of chemical substance,yeast gene YOR181W,0.6
same,The level of expressed mRNA in the presence of chemical substance/The level of expressed mRNA in the absence of chemical substance,yeast gene YOR185C,1.9
same,The level of expressed mRNA in the presence of chemical substance/The level of expressed mRNA in the absence of chemical substance,yeast gene YOR198C,2.4
same,The level of expressed mRNA in the presence of chemical substance/The level of expressed mRNA in the absence of chemical substance,yeast gene YOR256C,2.7
same,The level of expressed mRNA in the presence of chemical substance/The level of expressed mRNA in the absence of chemical substance,yeast gene YOR259C,2.7
same,The level of expressed mRNA in the presence of chemical substance/The level of expressed mRNA in the absence of chemical substance,yeast gene YOR261C,5.5
same,The level of expressed mRNA in the presence of chemical substance/The level of expressed mRNA in the absence of chemical substance,yeast gene YOR285W,4.0
same,The level of expressed mRNA in the presence of chemical substance/The level of expressed mRNA in the absence of chemical substance,yeast gene YOR288C,0.9
same,The level of expressed mRNA in the presence of chemical substance/The level of expressed mRNA in the absence of chemical substance,yeast gene YOR327C,1.4
same,The level of expressed mRNA in the presence of chemical substance/The level of expressed mRNA in the absence of chemical substance,yeast gene YOR355W,0.1
same,The level of expressed mRNA in the presence of chemical substance/The level of expressed mRNA in the absence of chemical substance,yeast gene YOR362C,4.3
same,The level of expressed mRNA in the presence of chemical substance/The level of expressed mRNA in the absence of chemical substance,yeast gene YOR383C,1.2
same,The level of expressed mRNA in the presence of chemical substance/The level of expressed mRNA in the absence of chemical substance,yeast gene YPL001W,0.7
same,The level of expressed mRNA in the presence of chemical substance/The level of expressed mRNA in the absence of chemical substance,yeast gene YPL018W,1.4
same,The level of expressed mRNA in the presence of chemical substance/The level of expressed mRNA in the absence of chemical substance,yeast gene YPL020C,2.3
same,The level of expressed mRNA in the presence of chemical substance/The level of expressed mRNA in the absence of chemical substance,yeast gene YPL089C,0.4
same,The level of expressed mRNA in the presence of chemical substance/The level of expressed mRNA in the absence of chemical substance,yeast gene YPL109C,1.2
same,The level of expressed mRNA in the presence of chemical substance/The level of expressed mRNA in the absence of chemical substance,yeast gene YPL149W,5.6
same,The level of expressed mRNA in the presence of chemical substance/The level of expressed mRNA in the absence of chemical substance,yeast gene YPL154C,2.8
same,The level of expressed mRNA in the presence of chemical substance/The level of expressed mRNA in the absence of chemical substance,yeast gene YPR066W,2.3
same,The level of expressed mRNA in the presence of chemical substance/The level of expressed mRNA in the absence of chemical substance,yeast gene YPR081C,4.2
same,The level of expressed mRNA in the presence of chemical substance/The level of expressed mRNA in the absence of chemical substance,yeast gene YPR086W,3.0
same,The level of expressed mRNA in the presence of chemical substance/The level of expressed mRNA in the absence of chemical substance,yeast gene YPR103W,5.5
same,The level of expressed mRNA in the presence of chemical substance/The level of expressed mRNA in the absence of chemical substance,yeast gene YPR107C,2.4
same,The level of expressed mRNA in the presence of chemical substance/The level of expressed mRNA in the absence of chemical substance,yeast gene YPR108W,3.7
